In patent US8063040B2, “Triazabenzo[E]azulene derivatives for the treatment of tumors” (Merck Patent Gesellschaft Mit Beschrankter Haftung, priority 2006, dated 2011):
pIC50: −log10 of the molar value. Counter-ions that a name gives are not always drawn.

Tested on: TGF-beta
Assay: Elimination of TGF-beta-mediated growth inhibition in Mv1Lu cells (Crystal Violet staining)
Type: cell-based
Conditions: lung epithelial cell line Mv1Lu, 1 ng/ml TGF-beta, 0.5% FCS, two days, absorption at 550 nm
Experimental: In-vitro (Enzyme) Assay for Determination of the Efficacy of the Inhibitors of the Inhibition of TGF-Beta-Mediated Effects
As an example, the ability of the inhibitors to eliminate TGF-beta-mediated growth inhibition is tested.
Cells of the lung epithelial cell line Mv1Lu are sown in a defined cell density in a 96-well microtitre plate and cultivated overnight under standard conditions. Next day, the medium is replaced by medium which comprises 0.5% of FCS and 1 ng/ml of TGF-beta, and the test substances are added in defined concentrations, generally in the form of dilution series with 5-fold steps. The concentration of the solvent DMSO is constant at 0.5%. After a further two days, Crystal Violet staining of the cells is carried out. After extraction of the Crystal Violet from the fixed cells, the absorption is measured spectrophotometrically at 550 nm. It can be used as a quantitative measure of the adherent cells present and thus of the cell proliferation during the culture.

| SMILES | pIC50 | pIC50 (Mv1Lu, 48 h) |
| --- | --- | --- |
| Cc1cccc(-c2nnc3n2-c2ccc(O)cc2CCC3C)n1 (centres unmarked) [Compound A2, 8-hydroxy-4-methyl-1-(6-methylpyridin-2-yl)-5,6-dihydro-4H-2,3,10b-triazabenzo[e]azulene] | 6.70 | – |
| COc1ccc2c(c1)C(C)CCc1nnc(-c3cccc(C)n3)n1-2 (centres unmarked) [Compound A18, 8-Methoxy-6-methyl-1-(6-methylpyridin-2-yl)-5,6-dihydro-4H-2,3,10b-triazabenzo[e]azulene, trifluoroacetate] | – | 5.48 |
| Cc1cccc(-c2nnc3n2-c2ccc(O)cc2CCC3C)n1 (centres unmarked) [Compound A19, 8-Hydroxy-4-methyl-1-(6-methylpyridin-2-yl)-5,6-dihydro-4H-2,3,10b-triazabenzo[e]azulene] | 5.60 | – |
| Cc1cccc(-c2nnc3n2-c2ccc(Cl)cc2C(C)CC3)n1 (centres unmarked) [Compound A4, 8-chloro-6-methyl-1-(6-methylpyridin-2-yl)-5,6-dihydro-4H-2,3,10b-triazabenzo[e]azulene] | – | 5.00 |
| COc1ccc2c(c1)CCC(C)c1nnc(-c3cccc(C)n3)n1-2 (centres unmarked) [Compound A1, 8-methoxy-4-methyl-1-(6-methylpyridin-2-yl)-5,6-dihydro-4H-2,3,10b-triazabenz[e]azulene] | – | 5.41 |
